Our source for the IC50 values is ChEMBL document CHEMBL1201862, “PubChem BioAssay data set” (2004).

Active and inactive are the calls of the source. Cut-off read from the data, not from the text of the source: actives have a measured IC50 and inactives only a lower limit.

For the assay, the target named is Envelope glycoprotein gp160 (Human immunodeficiency virus 1, UniProt Q6QLK5). The experiment in a line: cell-free HIV fusion peptide-binding blockers – biochemical, uHTS, fluorescence dequenching, […] (AID 1986).
Chain of Envelope glycoprotein gp160 (Q6QLK5 whole entry, the tested form may be a part): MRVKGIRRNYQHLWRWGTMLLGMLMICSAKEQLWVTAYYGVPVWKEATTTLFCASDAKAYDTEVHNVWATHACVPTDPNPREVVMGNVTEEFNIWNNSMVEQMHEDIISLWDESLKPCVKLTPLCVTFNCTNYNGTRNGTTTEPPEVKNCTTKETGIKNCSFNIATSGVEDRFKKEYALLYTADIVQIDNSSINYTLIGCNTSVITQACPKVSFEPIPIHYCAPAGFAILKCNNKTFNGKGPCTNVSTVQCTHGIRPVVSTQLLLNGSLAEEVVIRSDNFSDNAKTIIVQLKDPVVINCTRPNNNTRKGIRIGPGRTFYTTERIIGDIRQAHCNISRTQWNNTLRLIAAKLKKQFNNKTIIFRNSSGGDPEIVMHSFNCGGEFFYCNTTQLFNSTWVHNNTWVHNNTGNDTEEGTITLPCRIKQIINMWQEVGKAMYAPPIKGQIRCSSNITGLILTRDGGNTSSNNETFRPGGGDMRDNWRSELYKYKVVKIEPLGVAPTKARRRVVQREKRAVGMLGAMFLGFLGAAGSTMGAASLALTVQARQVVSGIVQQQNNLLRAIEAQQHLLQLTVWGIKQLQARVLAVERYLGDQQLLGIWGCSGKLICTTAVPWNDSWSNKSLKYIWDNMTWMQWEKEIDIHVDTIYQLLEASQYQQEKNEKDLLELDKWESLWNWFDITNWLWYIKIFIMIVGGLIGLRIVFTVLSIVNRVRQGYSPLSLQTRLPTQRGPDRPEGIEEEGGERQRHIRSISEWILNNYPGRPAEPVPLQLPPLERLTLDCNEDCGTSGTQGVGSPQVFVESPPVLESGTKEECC
Regarding `O=C(O)/C=C/C(=O)Nc1ccc(C2(c3ccc(NC(=O)/C=C/C(=O)O)cc3)c3ccccc3-c3ccccc32)cc1`, the 50% inhibitory concentration (IC50) (in general, the point on the concentration scale where inhibition reaches its midpoint) is 15 µM (active). The result for `COc1ccc2c(c1)cc(C(=O)N/N=C/c1c(O)c(C(=O)O)cc3ccccc13)n2C` reads 7.59 µM (active). The result for `O=C(COc1cccc2ccccc12)Nc1ccc(Cl)cc1C(=O)O` reads 31.3 µM (active); that for `Cc1ccc(Cl)cc1N1CCN(C(=O)Cc2c(C(=O)O)[nH]c3ccc(Cl)cc23)CC1`, 24.5 µM (active).

For `O=C(O)C(c1ccccc1)N1C(=O)/C(=C\c2ccc(O)c(O)c2)SC1=S` (stereo unspecified), the IC50 was 13.2 µM (active).

As to `Cc1ccc(N2C(=O)/C(=C/c3ccc(CN(CCC#N)S(C)(=O)=O)o3)C(=O)NC2=S)cc1C`, the concentration for half-maximal inhibition (IC50) was 21.6 µM (active).
